Data: PubChem BioAssay AID248 (DTP/NCI, 2004)
Several values for one entry are separate records, joined by “and”; a condition that tells them apart may be missing. Equal values may be shown once. Toxic doses and inconclusive results are not listed. Cut-off read from the data, not from the text of the source: active = T/C of 150% or more; inactive = T/C below 125%.

System: L1210 leukemia ip in BDF1 mice, survival T/C
Experiment: NCI In Vivo Anticancer Drug Screen. Data for tumor model L1210 Leukemia (intraperitoneal) in B6D2F1 (BDF1) mice
Conditions: endpoint: mean survival time, higher = longer survival
Outline: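 Mice bearing the transplanted tumor received compound or vehicle. Survival of the treated group was divided by that of the vehicle-treated control group to give the ratio.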

[1] = dose: 100.0 mg/kg/injection, schedule: Q01DX001 (ip), vehicle: Klucel (hydroxypropylcellulose) (HPC)
[2] = dose: 100.0 mg/kg/injection, schedule: Q01DX009 (ip), vehicle: Klucel (hydroxypropylcellulose) (HPC)
[3] = dose: 200.0 mg/kg/injection, schedule: Q01DX001 (ip), vehicle: Klucel (hydroxypropylcellulose) (HPC)
[4] = dose: 200.0 mg/kg/injection, schedule: Q01DX009 (ip), vehicle: Klucel (hydroxypropylcellulose) (HPC)
[5] = dose: 400.0 mg/kg/injection, schedule: Q01DX001 (ip), vehicle: Klucel (hydroxypropylcellulose) (HPC)
[6] = dose: 400.0 mg/kg/injection, schedule: Q01DX009 (ip), vehicle: Klucel (hydroxypropylcellulose) (HPC)
[7] = dose: 50.0 mg/kg/injection, schedule: Q01DX009 (ip), vehicle: saline with Tween-80
[8] = dose: 100.0 mg/kg/injection, schedule: Q01DX009 (ip), vehicle: saline with Tween-80
[9] = dose: 100.0 mg/kg/injection, schedule: Q04DX003 (ip), vehicle: saline with Tween-80
[10] = dose: 200.0 mg/kg/injection, schedule: Q04DX003 (ip), vehicle: saline with Tween-80
[11] = dose: 75.0 mg/kg/injection, schedule: Q01DX001 (ip), vehicle: saline
[12] = dose: 150.0 mg/kg/injection, schedule: Q01DX001 (ip), vehicle: saline
[13] = dose: 100.0 mg/kg/injection, schedule: Q01DX001 (ip), vehicle: saline
[14] = dose: 200.0 mg/kg/injection, schedule: Q01DX001 (ip), vehicle: saline
[15] = dose: 400.0 mg/kg/injection, schedule: Q01DX001 (ip), vehicle: saline

Measured: T/C

O=C1CCOc2ccc3ccccc3c21
inactive: [1] 101 % of control | [2] 109 % of control | [3] 98 % of control | [4] 101 % of control | [5] 90 % of control | [6] 111 % of control

CC(Cl)(/N=N\C(C)(Cl)c1ccc(Cl)cc1)c1ccc(Cl)cc1 (stereo unspecified)
inactive: [1] 96 % of control | [2] 92 % of control | dose: 100.0 mg/kg/injection, schedule: Q04DX003 (ip), vehicle: Klucel (hydroxypropylcellulose) (HPC) 103 % of control | [3] 92 % of control | [4] 106 % of control | dose: 200.0 mg/kg/injection, schedule: Q04DX003 (ip), vehicle: Klucel (hydroxypropylcellulose) (HPC) 103 % of control | [5] 96 % of control | [6] 98 % of control | dose: 400.0 mg/kg/injection, schedule: Q04DX003 (ip), vehicle: Klucel (hydroxypropylcellulose) (HPC) 93 % of control

COc1cc2c(cc1OC)C(c1ccc(O)c(O)c1)CNC2 (stereo unspecified)
inactive: [7] 101 % of control | [8] 100 % of control | dose: 200.0 mg/kg/injection, schedule: Q01DX009 (ip), vehicle: saline with Tween-80 95 % of control

CC(=O)OC1CCC2C3CCC4=CC(=O)CCC4(C)C3=CCC12C (stereo unspecified)
inactive: dose: 100.0 mg/kg/injection, schedule: Q01DX001 (ip), vehicle: saline with Tween-80 95 % of control | dose: 200.0 mg/kg/injection, schedule: Q01DX001 (ip), vehicle: saline with Tween-80 95 % of control | dose: 400.0 mg/kg/injection, schedule: Q01DX001 (ip), vehicle: saline with Tween-80 92 % of control

CC12CCC(Cl)CC1=CCC1C2CCC2(C)c3nc(N)ncc3CC12 (stereo unspecified)
inactive: dose: 100.0 mg/kg/injection, schedule: Q04DX003 (sc), vehicle: gum acacia 101 % of control | dose: 200.0 mg/kg/injection, schedule: Q04DX003 (sc), vehicle: gum acacia 92 % of control | dose: 400.0 mg/kg/injection, schedule: Q04DX003 (sc), vehicle: gum acacia 103 % of control

COC1=NS(=O)(=O)C=C(c2ccccc2)O1
inactive: dose: 300.0 mg/kg/injection, schedule: Q04DX002 (ip), vehicle: Klucel (hydroxypropylcellulose) (HPC) 100 % of control

CC(Br)(C(=O)O)C(Br)c1ccccc1 (stereo unspecified)
inactive: [9] 90 % of control | [10] 95 % of control | dose: 400.0 mg/kg/injection, schedule: Q04DX003 (ip), vehicle: saline with Tween-80 88 % of control

C[N+]1(C)C2CCC(OCc3ccccc3)C1COC2 (stereo unspecified)
inactive: [11] 98 % of control | [12] 105 % of control

C/C=C/CC1=C(O)c2ccccc2C(=O)C1=O
inactive: dose: 100.0 mg/kg/injection, schedule: Q01DX001 (ip), vehicle: water 98 % of control

Cc1ccc(OC(C)C(=O)O)c(C)c1 (stereo unspecified)
inactive: dose: 100.0 mg/kg/injection, schedule: Q04DX002 (ip), vehicle: Klucel (hydroxypropylcellulose) (HPC) 104 % of control | dose: 200.0 mg/kg/injection, schedule: Q04DX002 (ip), vehicle: Klucel (hydroxypropylcellulose) (HPC) 98 % of control | dose: 400.0 mg/kg/injection, schedule: Q04DX002 (ip), vehicle: Klucel (hydroxypropylcellulose) (HPC) 95 % of control

CN(C)C(CCN1CCCCC1)CN1CCCCC1 (stereo unspecified)
inactive: [13] 100 % of control | [14] 96 % of control | [15] 90 % of control

COc1cc(Br)c(NC(C)=O)cc1OC
inactive: [13] 98 % of control | [14] 108 % of control | [15] 96 % of control

Clc1ccccc1/C=C/C=C1c2ccccc2-c2ccccc21
inactive: dose: 100.0 mg/kg/injection, schedule: Q04DX003 (ip), vehicle: saline 98 % of control and 90 % of control | dose: 200.0 mg/kg/injection, schedule: Q04DX003 (ip), vehicle: saline 98 % of control | dose: 400.0 mg/kg/injection, schedule: Q04DX003 (ip), vehicle: saline 105 % of control and 92 % of control

CCOC(=O)C(=O)Cc1cnccn1
inactive: dose: 100.0 mg/kg/injection, schedule: Q01DX001 (ip), vehicle: other 101 % of control and 108 % of control | dose: 200.0 mg/kg/injection, schedule: Q01DX001 (ip), vehicle: other 100 % of control and 101 % of control | dose: 400.0 mg/kg/injection, schedule: Q01DX001 (ip), vehicle: other 97 % of control

O=C(NC(c1ccccc1)c1ccccc1)c1ccccc1
inactive: dose: 25.0 mg/kg/injection, schedule: Q01DX009 (ip), vehicle: saline with Tween-80 88 % of control | dose: 25.0 mg/kg/injection, schedule: Q04DX003 (ip), vehicle: saline with Tween-80 97 % of control | dose: 50.0 mg/kg/injection, schedule: Q01DX001 (ip), vehicle: saline 97 % of control | [7] 88 % of control | dose: 50.0 mg/kg/injection, schedule: Q04DX003 (ip), vehicle: saline with Tween-80 94 % of control | [13] 91 % of control | [8] 88 % of control | [9] 89 % of control

OC12CC[N+](Cc3ccccc3)(CC1)CC2
inactive: [11] 104 % of control | [12] 100 % of control

Cc1[nH]c(=O)[nH]c(=O)c1N(CCF)CCCl
inactive: dose: 5.0 mg/kg/injection, schedule: Q01DX009 (ip), vehicle: Klucel (hydroxypropylcellulose) (HPC) 104 % of control and 107 % of control | dose: 5.0 mg/kg/injection, schedule: Q01DX009 (ip), vehicle: saline 106 % of control | dose: 9.0 mg/kg/injection, schedule: Q01DX009 (ip), vehicle: Klucel (hydroxypropylcellulose) (HPC) 108 % of control | dose: 10.0 mg/kg/injection, schedule: Q01DX009 (ip), vehicle: Klucel (hydroxypropylcellulose) (HPC) 112 % of control | dose: 10.0 mg/kg/injection, schedule: Q01DX009 (ip), vehicle: saline 112 % of control | dose: 14.0 mg/kg/injection, schedule: Q01DX009 (ip), vehicle: Klucel (hydroxypropylcellulose) (HPC) 120 % of control | dose: 20.0 mg/kg/injection, schedule: Q01DX009 (ip), vehicle: Klucel (hydroxypropylcellulose) (HPC) 110 % of control | dose: 20.0 mg/kg/injection, schedule: Q01DX009 (ip), vehicle: saline 124 % of control | dose: 23.0 mg/kg/injection, schedule: Q01DX009 (ip), vehicle: Klucel (hydroxypropylcellulose) (HPC) 123 % of control | dose: 23.0 mg/kg/injection, schedule: Q04DX003 (ip), vehicle: Klucel (hydroxypropylcellulose) (HPC) 108 % of control | dose: 39.0 mg/kg/injection, schedule: Q01DX009 (ip), vehicle: Klucel (hydroxypropylcellulose) (HPC) 94 % of control | dose: 39.0 mg/kg/injection, schedule: Q04DX003 (ip), vehicle: Klucel (hydroxypropylcellulose) (HPC) 116 % of control | dose: 65.0 mg/kg/injection, schedule: Q01DX001 (ip), vehicle: Klucel (hydroxypropylcellulose) (HPC) 104 % of control | dose: 108.0 mg/kg/injection, schedule: Q01DX001 (ip), vehicle: Klucel (hydroxypropylcellulose) (HPC) 110 % of control | dose: 108.0 mg/kg/injection, schedule: Q04DX003 (ip), vehicle: Klucel (hydroxypropylcellulose) (HPC) 96 % of control | dose: 180.0 mg/kg/injection, schedule: Q01DX001 (ip), vehicle: Klucel (hydroxypropylcellulose) (HPC) 120 % of control | dose: 180.0 mg/kg/injection, schedule: Q04DX003 (ip), vehicle: Klucel (hydroxypropylcellulose) (HPC) 96 % of control

CC(C)Oc1c(N(C)CCO)c2cc(Cl)ccc2oc1=O
inactive: [9] 95 % of control | [10] 101 % of control

CN(C)P(=O)(N(C)C)N(C)C
inactive: [13] 101 % of control | [14] 98 % of control | [15] 102 % of control | dose: 1:6400.0 dilution, schedule: Q01DX009 (ip), vehicle: saline 107 % of control

N#CC1CN(c2ccccc2)CC1=O (stereo unspecified)
inactive: [2] 97 % of control | [4] 96 % of control
